Measured values taken from patent US9187415B2, “Sulfonamides as HIV protease inhibitors” (Merck Canada Inc., priority 2010, dated 2015).
Read-outs that look alike come from different tables or passages of the source.

Experiments:
[1] = tested on: human immunodeficiency virus type 1; assay: Acute Infection Assay (Spread); format: cell-based, HIV-1; details: Human immunodeficiency virus 1; 10% FBS; mean of at least two independent experiments; read-out: Spread IC95
Source text: Acute Infection Assay (“Spread”) data were generated in 10% FBS, and according to the methods disclosed by J. P. Vacca et al, “L-735,524: An orally bioavailable human immunodeficiency virus type 1 protease inhibitor,” Proc. Nati. Acad. Sci. USA, Vol. 91, pp. 4096-4100 (April 1994).

[2] = molecular target: T1, HIV-1 protease (wild type) (Human immunodeficiency virus type 1 group M subtype B, UniProt P04585); assay: Protease Inhibition Assay (Pepcleave), inhibition of microbial expressed HIV protease; format: biochemical
T1 construct: made in house; host or cells: Escherichia coli
Protocol: Assay for Inhibition of Microbial Expressed HIV Protease
Inhibition studies of the reaction of the protease (which was expressed in Eschericia coli) with a peptide substrate [Val-Ser-Gln-Asn-(betanaphtyl)Ala-Pro-Ile-Val]. The inhibitor is first preincubated with the HIV-1 protease (wild type) enzyme in assay buffer (50 mM sodium acetate, pH 5.5, 100 mM NaCl, and 0.1% BSA) for 30 minutes at room temperature. Substrate is added to 400 micromolar in a total volume of 80 microliters containing 10 picomolar HIV-1 protease and the reaction is incubated for 1 hour at 30° C. The reaction is quenched with the addition of 120 microliters of 10% phosphoric acid. The product formation is determined after separation of product and substrate on a Zorbax Eclipse XDB-C18 column connected to an Agilent 1100 high performance liquid chromatography system with fluorescence detection (excitation 270 nanometer and emission 330 nanometer). Alternatively, the inhibitor is preincubated with enzyme and substrate as described above, but in a total volume of 20 microliters containing 20 picomolar HIV-1 protease and the reaction is incubated for 1 hour at 30° C. The reaction is quenched with the addition of 30 microliters of 1 micromolar indinavir (indinavir is also used as an internal standard), and the product formation is determined after separation of product and substrate on a Zorbax Eclipse XDB-C18 column connected to an API 4000 mass spectrometer (Applied Biosystems) with multiple reaction monitoring (transitions were 644.5/428.9 and 615.4/422.2 (M1/M3) for product and indinavir respectively). The extent of inhibition of the reaction is determined from the peak area of the products. HPLC of the products, independently synthesized, provided quantitation standards and confirmation of the product composition.
Protease Inhibition Assay (“Pepcleave”) data were collected based on the wild-type HIV-1 protease enzyme. The assay monitors the cleavage of a 8-mer peptide (VSQN[β-Nal]PIV) where the tyrosine at P1 position is replaced by β-Naphthyl-alanine. Upon cleavage of the peptide by HIV-1 protease, the product is separated from substrate by HPLC column and detected at Ex.=270 nm/Em=330 nm.

[3] = wild-type HIV-1 protease, mean of at least two independent experiments, read-out: Pepcleave Enzyme inhibition IC50

SMILES	IC95 [1]	IC50 [2, 3]	IC50 [2]
COC(=O)N[C@H](C(=O)Nc1cc(F)ccc1CC[C@@H](CO)N(CC1CC(F)(F)C1)S(=O)(=O)c1ccc2ncsc2c1)C(c1ccccc1)c1ccccc1 [Example 13, N-{2-[(3S)-3-{(1,3-benzothiazol-6-ylsulfonyl)[(3,3-difluorocyclobutyl)methyl]amino}-4-hydroxybutyl]-5-fluorophenyl}-Nα-(methoxycarbonyl)-β-phenyl-L-phenylalaninamide]	1180 nM	1.9 nM	–
COC(=O)N[C@@H](Cc1ccccc1Cl)C(=O)Nc1ccccc1CC[C@@H](CO)N(CCC(C)C)S(=O)(=O)c1ccc(N)cc1 [Example 14, N-{2-[(3S)-3-{[(4-aminophenyl)sulfonyl](3-rnethylbutyl)amino}-4-hydroxybutyl]phenyl}-2-chloro-Nα-(methoxycarbonyl)-L-phenylalaninamide]	1180 nM	1.2 nM	–
COC(=O)N[C@@H](Cc1ccccc1Cl)C(=O)Nc1ccccc1CC[C@@H](CO)N(Cc1cn[nH]c1)S(=O)(=O)c1ccc(N)cc1 [Example 15, N-{2[(3S)-3-{[(4-aminophenyl)sulfonyl](1H-pyrazol-4-ylmethyl)amino}-4-hydroxybutyl]phenyl}-2-chloro-Nα-(methoxycarbonyl)-L-phenylalaninamide]	2440 nM	1.8 nM	–
COC(=O)N[C@H](C(=O)Nc1cccnc1CC[C@@H](CO)N(Cc1cnoc1)S(=O)(=O)c1ccc2ncsc2c1)C(c1ccccc1)c1ccccc1 [Example 18, N-(2-{(3S)-3-[(1,3-benzothiazol-6-ylsulfonyl)(isoxazol-4-ylmethyl)amino]-4-hydroxybutyl}pyridin-3-yl)-Nα-(methoxycarbonyl)-β-phenyl-L-phenylalaninamide]	755 nM	2.3 nM	–
COC(=O)N[C@H](C(=O)Nc1cccnc1CC[C@@H](CO)N(Cc1cncnc1C)S(=O)(=O)c1ccc2ncsc2c1)C(c1ccccc1)c1ccccc1 [Example 19, N-[2[(3S)-3-{(1,3-benzothiazol-6-ylsulfonyl)[(4-methylpyrimidin-5-yl)methyl]amino)-4-hydroxybutyl]pyridin-3-yl]-Nα-(methoxycarbonyl)-β-phenyl-L-phenylalaninamide]	766 nM	4.2 nM	–
COC(=O)N[C@H](C(=O)Nc1cnccc1CC[C@@H](CO)N(Cc1cncnc1C)S(=O)(=O)c1ccc2ncsc2c1)C(c1ccccc1)c1ccccc1 [Example 20, N-{4-[(3S)-3-{(1,3-benzothiazol-6-ylsulfonyl)[(4-methylpyrimidin-5-yl)methyl]amino}-4-hydroxybutyl]pyridin-3-yl}-Nα-(methoxycarbonyl)-β-phenyl-L-phenylalaninamide]	2200 nM	3.5 nM	–
COC(=O)N[C@H](C(=O)Nc1c(SC[C@@H](CO)N(CCC(C)C)S(=O)(=O)c2ccc(N)cc2)cc[nH]c1=O)C(c1ccccc1)c1ccccc1 [Example 23, N-(4-{[(2R)-2-{[(4-aminophenyl)sulfonyl](3-methylbutyl)amino}-3-hydroxypropyl]sulfanyl}-2-oxo-1,2-dihydropyridin-3-yl)-Nα-(methoxycarbonyl)-β-phenyl-L-phenyl alaninamide]	2500 nM	0.06 nM	–
COC(=O)N[C@H](C(=O)Nc1cnccc1SC[C@@H](CO)N(CC(C)C)S(=O)(=O)c1ccc2ncsc2c1)C(c1ccccc1)c1ccccc1 [Example 24, N-[4-({(2R)-2-[(1,3-benzothiazol-6-ylsulfonyl)(2-methylpropyl)amino]-3-hydroxypropyl}sulfanyl)pyridin-3-yl]-Nα-(methoxycarbonyl)-β-phenyl-L-phenylalaninamide]	1120 nM	4.2 nM	–
[2H]C([2H])([2H])C([2H])(C([2H])([2H])[2H])C([2H])([2H])N([C@H](CO)CSc1ccncc1NC(=O)[C@@H](NC(=O)OC)C(c1ccccc1)c1ccccc1)S(=O)(=O)c1ccc2ncsc2c1 [Example 25, N-[4-({(2R)-2-[(1,3-benzothiazol-6-ylsulfonyl)(2-methylpropyld7)amino)-3-hydroxypropyl}sulfanyl)pyridin-3-yl]-Nα-(methoxycarbonyl)-β-phenyl-L-phenylalaninamide]	1150 nM	4.8 nM	–
COC(=O)N[C@H](C(=O)Nc1cnccc1SC[C@@H](CO)N(Cc1cn(C)nc1C)S(=O)(=O)c1ccc2ncsc2c1)C(c1ccccc1)c1ccccc1 [Example 26, N-(4-{[(2R)-2-{(1,3-benzothiazol-6-ylsulfonyl)[(1,3-dimethyl-1H-pyrazol-4-yl)methyl]amino)-3-hydroxypropyl)sulfanyl}pyridin-3-yl)-Nα-(methoxycarbonyl)-β-phenyl-L-phenylalaninamide]	1260 nM	0.4 nM	–
COC(=O)N[C@H](C(=O)Nc1cnccc1SC[C@@H](CO)N(Cc1cnoc1)S(=O)(=O)c1ccc2ncsc2c1)C(c1ccccc1)c1ccccc1 [Example 27, N-[4-({(2R)-2-[(1,3-benzothiazol-6-ylsulfonyl)(isoxazol-4-ylmethyl)amino]-3-hydroxypropyl}sulfanyl)pyridin-3-yl]-Nα-(methoxycarbonyl)-β-phenyl-L-phenylalaninamide]	1500 nM	6.9 nM	–
COC(=O)N[C@H](C(=O)Nc1ccccc1SC[C@@H](CO)N(CCC(C)C)S(=O)(=O)c1ccc(N)cc1)C(c1ccccc1)c1ccccc1 [Example 28, N-(2-{[(2R)-2-{[(4-aminophenyl)sulfonyl](3-methylbutyl)amino}-3-hydroxypropyl]sulfanyl}phenyl)-Nα-(methoxycarbonyl)-β-phenyl-L-phenylalaninamide]	194 nM	0.1 nM	–
COC(=O)N[C@H](C(=O)Nc1ccccc1S(=O)(=O)C[C@@H](CO)N(CCC(C)C)S(=O)(=O)c1ccc(N)cc1)C(c1ccccc1)c1ccccc1 [Example 29, N-(2-{[(2R)-2-{[(4-aminophenyl)sulfonyl)(3-methylbutyl)amino}-3-hydroxypropyl]sulfonyl}phenyl)-Nα-(methoxycarbonyl)-β-phenyl-L-phenyl alaninamide]	1250 nM	2.9 nM	–
COC(=O)N[C@H](C(=O)Nc1ccccc1[S+]([O-])C[C@@H](CO)N(CCC(C)C)S(=O)(=O)c1ccc(N)cc1)C(c1ccccc1)c1ccccc1 (stereo partly drawn) [Example 30, N-(2-{[(2R)-2-{[(4-aminophenyl)sulfonyl](3-methylbutyl)amino}-3-hydroxypropyl]sulfinyl}phenyl)-Nα-(methoxycarbonyl)-β-phenyl-L-phenyl alaninamide]	1780 nM	2.1 nM	–
COC(=O)N[C@H](C(=O)Nc1cccc(C[C@@H](CO)N(CCC(C)C)S(=O)(=O)c2ccc(N)cc2)c1)C(c1ccccc1)c1ccccc1 [Example 31, N-{3-[(2S)-2-{[(4-aminophenyl)sulfonyl](3-methylbutyl)amino}-3-hydroxypropyl]phenyl}-Nα-(methoxycarbonyl)-β-phenyl-L-phenylalaninamide]	1260 nM	3.7 nM	–
COC(=O)N[C@H](C(=O)Nc1cccc(C[C@@H](CO)N(CCC(C)C)S(=O)(=O)c2ccc(CO)cc2)c1)C(c1ccccc1)c1ccccc1 [Example 32, N-(3-{(2S)-3-hydroxy-2-[{[4-(hydroxymethyl)phenyl]sulfonyl}(3-methylbutyl)amino]propyl}phenyl)-Nα-(methoxycarbonyl)-β-phenyl-L-phenylalaninamide]	1740 nM	–	2.4 nM
